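Compound exposure: 48 hours, 5 concentrations, 96-well plates. Here, GI50 denotes the concentration required for 50% inhibition of growth. At the TGI there is no net growth.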
Assays:
Test in all cases: growth of human tumour cells (NCI), 48 h
TK-10 renal = system: TK-10 renal
RXF 393 renal = system: RXF 393 renal
NCI-H226 lung = system: NCI-H226 lung
SR leukemia = system: SR leukemia
PC-3 prostate = system: PC-3 prostate
OVCAR-4 ovarian = system: OVCAR-4 ovarian
COLO 205 colon = system: COLO 205 colon
M14 melanoma = system: M14 melanoma
SK-MEL-28 melanoma = system: SK-MEL-28 melanoma
T-47D breast = system: T-47D breast

Row | Compound | GI50 (TK-10 renal) [µM] | TGI (TK-10 renal) [µM] | GI50 (RXF 393 renal) [µM] | TGI (RXF 393 renal) [µM] | GI50 (NCI-H226 lung) [µM] | TGI (NCI-H226 lung) [µM] | GI50 (SR leukemia) [µM] | TGI (SR leukemia) [µM] | GI50 (PC-3 prostate) [µM] | TGI (PC-3 prostate) [µM] | GI50 (OVCAR-4 ovarian) [µM] | TGI (OVCAR-4 ovarian) [µM] | GI50 (COLO 205 colon) [µM] | TGI (COLO 205 colon) [µM] | GI50 (M14 melanoma) [µM] | TGI (M14 melanoma) [µM] | GI50 (SK-MEL-28 melanoma) [µM] | GI50 (T-47D breast) [µM] | TGI (T-47D breast) [µM] | TGI (SK-MEL-28 melanoma) [µM]
1 | C[C@]12CC[C@@H]3c4ccc(OC(=O)N(CCCl)CCCl)cc4CC[C@H]3[C@@H]1CC[C@@H]2O | 3.04 | 9.98 | 2.23 | 6.42 | 3.98 | 22.3 | 0.135 | 1.42 | 3.02 | > 40.2 | 4.36 | 39.5 | 2.99 | 8.94 | 1.61 | 11.5 | 3.75 | 4.83 | 40.7 | 
2 | CCOC(=O)c1c(C)nc2c(c1N)CC(=O)N2Cc1ccc(OC)cc1 | 5.12 | > 100 |  |  | 7.36 | > 100 | 63.1 | > 100 | > 100 | > 100 | > 100 | > 100 | > 100 | > 100 | > 100 | > 100 | > 100 | 25.9 | > 100 | > 100
3 | C=C(CN1C(=O)CN(C)C1=O)c1ccc(C(=O)Nc2ccccc2N)cc1 | 3.44 | 31.5 | 20.1 | 67.2 | 23.6 | > 100 | 1.41 | 10.7 | 12 | > 100 | 4.65 | 35.8 | 9.24 | 44.8 | 29.8 | > 100 | 15.9 | 2.55 | 22.2 | 54.8
4 | COc1cccc(N2CCN(CC(=O)N3CCN(c4nnc(-c5ccc(Cl)cc5)c(-c5ccc(Cl)cc5)n4)CC3)CC2)c1 | 17.3 | 85.9 | 28.7 | > 100 | 88.3 | > 100 | 5.04 | 31.3 | 16.6 | > 100 | 25.3 | > 100 | 22.2 | > 100 | 30.2 | > 100 | > 100 | 3.73 | 47.6 | > 100
5 | COc1ccc(-c2nn(-c3cccc(Cl)c3)cc2-c2cc(-c3cccs3)[nH]c(=S)n2)cc1 | 4.55 | 32.8 | 3.76 | 19.5 | 3.16 | 54.4 | 4 | 31.9 | 3.09 | > 100 | 3.47 | > 100 | 2.35 | 5.59 | 2.81 | 14 | 3.93 | 4.16 | 34.6 | 15.7
6 | CN(CCO)CC[C@H](CSc1ccccc1)Nc1ccc(S(=O)(=O)NC(=O)c2ccc(N3CCC([C@@H](O)c4ccccc4-c4ccc(Cl)cc4)CC3)cc2)cc1S(=O)(=O)C(F)(F)F | 5.2 | 19.2 | 0.311 | 1.54 | 2.5 | 7.46 | 2.23 | 35.7 | 2.51 | 9.05 | 17.6 | > 100 | 1.46 | 4.5 | 3.51 | 20.2 | 2.23 | 4.26 | 59.6 | 5.11
